Patent US10829520B2, “Beta-hairpin peptidomimetics” (POLYPHOR AG, priority 2015, dated 2020)
Where a SMILES comes first, the peptide text is derived from it. Bridges are numbered along the chain shown (N, C = ends). Roman numbers before positions name the chains, in order. [ ]: non-standard residue; d: D form. dHyp = O=C(O)[C@H]1C[C@H](O)CN1; NMeDab = CN[C@@H](CCN)C(=O)O; Pen = CC(C)(S)[C@H](N)C(=O)O; Tle = CC(C)(C)[C@H](N)C(=O)O; NMeC = CN[C@@H](CS)C(=O)O; dDab = NCC[C@@H](N)C(=O)O; Nle = CCCC[C@H](N)C(=O)O; Orn = NCCC[C@H](N)C(=O)O; Dab = NCC[C@H](N)C(=O)O

Legend:
Type in all cases: cell-based
[1] = test system: Acinetobacter baumannii 872842; conditions: 872842
[2] = test system: Acinetobacter baumannii DSM 30008; conditions: DSM 30008
Summary of the method: (§1)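 Minimal inhibitory concentrations were recorded in μg/mL after the strains grew 18-20 hours at 35° C with two-fold serial peptide dilutions. The medium was Mueller-Hinton II (cation-adjusted) with 0.002% Polysorbate 80, and the inoculum was about 10^6 CFU/mL.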

Escherichia coli 926415 = conditions: 926415
[3] = test system: Escherichia coli ATCC 25922; conditions: ATCC 25922
Summary of the method: as §1

[4] = test system: Klebsiella pneumoniae 968733; conditions: 968733
[5] = test system: Klebsiella pneumoniae SSI #3010; conditions: SSI #3010
Summary of the method: as §1

[6] = test system: Pseudomonas aeruginosa ATCC 27853; conditions: ATCC 27853
Summary of the method: as §1

[7] = test system: human red blood cells (hRBC); experiment: Hemolysis of human red blood cells; conditions: red cells of human, 1 h
Summary of the method: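 hRBC washed 3× PBS; 20% v/v, ~0.9×10^9 cells/mL final. Peptide 100 μg/mL, 1 h, 37° C., 300 rpm. Spin, supernatant diluted 8×, OD540. 0% = PBS + 0.001% acetic acid; 100% = 2.5% Triton X-100. % hemolysis = OD540 peptide/OD540 full lysis × 100.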

Row | SMILES | Acinetobacter baumannii 872842 MIC [1] | Acinetobacter baumannii DSM 30008 MIC [2] | Escherichia coli 926415 MIC (Escherichia coli 926415) | Escherichia coli ATCC 25922 MIC [3] | Klebsiella pneumoniae 968733 MIC [4] | Klebsiella pneumoniae SSI #3010 MIC [5] | Pseudomonas aeruginosa ATCC 27853 MIC [6] | Hemolysis at 100 μg/mL ([7]; 100 μg/mL) | Hemolysis at 100 μg/mL [7]; 100
1 | CCCC[C@@H]1NC(=O)[C@@H]2CCCN2C(=O)[C@H]2CCCN2C(=O)[C@H](CO)NC(=O)[C@H](C)NC(=O)[C@H](C(C)(C)C)NC(=O)[C@@H](NC(=O)[C@H](Cc2c[nH]c3ccccc23)NC(C)=O)CSSC[C@@H](C(=O)N[C@@H](CCN)C(=O)NCC(=O)N[C@H](C(=O)N[C@@H](CCN)C(=O)N[C@H]2CCNC(=O)[C@H]([C@@H](C)O)NC(=O)[C@H](CCN)NC(=O)[C@H](CCN)NC(=O)[C@H](CC(C)C)NC(=O)[C@@H](Cc3ccccc3)NC(=O)[C@H](CCN)NC2=O)[C@@H](C)O)NC(=O)[C@H](Cc2ccc(O)cc2)NC(=O)[C@H](CO)NC1=O [Ex. 31] (Ac-WC[Tle]AS[dP]P[Nle]SYC[Dab]GT[Dab][Dab][Dab][dF]L[Dab][Dab]T; disulfide 2-11; lactam 16-C) | 1 µg/mL | 0.125 µg/mL | 1.5 µg/mL | 0.5 µg/mL | 0.75 µg/mL | 0.25 µg/mL | 1 µg/mL | 2% | 
2 | CCCC[C@@H]1NC(=O)[C@@H]2CCCN2C(=O)[C@H]2CCCN2C(=O)[C@H](CO)NC(=O)[C@H](C)NC(=O)[C@H](C(C)(C)C)NC(=O)[C@@H](NC(=O)[C@H](Cc2c[nH]c3ccccc23)NC(=O)[C@@H](N)CCCN)CSSC[C@@H](C(=O)N[C@@H](CCN)C(=O)N[C@H](C(=O)N[C@@H](CCN)C(=O)N[C@H]2CCNC(=O)[C@H]([C@@H](C)O)NC(=O)[C@H](CCN)NC(=O)[C@H](CCN)NC(=O)[C@H](CC(C)C)NC(=O)[C@@H](Cc3ccccc3)NC(=O)[C@H](CCN)NC2=O)[C@@H](C)O)NC(=O)[C@H](Cc2ccc(O)cc2)NC(=O)[C@H](CO)NC1=O [Ex. 38] (H-[Orn]WC[Tle]AS[dP]P[Nle]SYC[Dab]T[Dab][Dab][Dab][dF]L[Dab][Dab]T; disulfide 3-12; lactam 16-C) | 0.5 µg/mL | 0.5 µg/mL | 0.125 µg/mL | 0.25 µg/mL | 2 µg/mL | 0.25 µg/mL | 0.25 µg/mL | 1% | 
3 | CC(C)C[C@@H]1NC(=O)[C@@H](Cc2ccccc2)NC(=O)[C@H](CCN)NC(=O)[C@@H](NC(=O)[C@H](CCN)NC(=O)[C@@H](CCN)NC(=O)[C@@H](NC(=O)[C@H](CCCN)NC(=O)[C@@H]2CSSC[C@H](NC(=O)[C@@H](N)Cc3c[nH]c4ccccc34)C(=O)N[C@@H](C(C)C)C(=O)N[C@@H](C)C(=O)N[C@@H](CO)C(=O)N3CCC[C@@H]3C(=O)N3CCC[C@H]3C(=O)N[C@@H](C(C)C)C(=O)N[C@@H](CO)C(=O)N[C@@H](Cc3ccc(O)cc3)C(=O)N2)[C@@H](C)O)CCNC(=O)[C@H]([C@@H](C)O)NC(=O)[C@H](CCNC(=O)[C@@H](N)CCCNC(=N)N)NC(=O)[C@H](CCN)NC1=O [Ex. 177] (H-WCVAS[dP]PVSYC[Orn]T[dDab][Dab][Dab][Dab][dF]L[Dab][Dab](Arg)T; disulfide 2-11; lactam 16-C) | 2 µg/mL | 1 µg/mL | 2 µg/mL | 1 µg/mL | 2 µg/mL | 1 µg/mL | 0.5 µg/mL | 1.4% | 
4 | CCCC[C@@H]1NC(=O)[C@@H]2CCCN2C(=O)[C@H]2CCCN2C(=O)[C@H](CO)NC(=O)[C@H](Cc2ccc(O)cc2)NC(=O)[C@H](C(C)(C)C)NC(=O)[C@H](CCN)NC(=O)[C@H](Cc2c[nH]c3ccccc23)NC(=O)[C@@H](NC)CSSC[C@@H](C(=O)N[C@H](CCN)C(=O)N[C@H]2CCNC(=O)[C@H]([C@@H](C)O)NC(=O)[C@H](CCN)NC(=O)[C@H](CCN)NC(=O)[C@H](CC(C)C)NC(=O)[C@@H](CC(C)C)NC(=O)[C@H](CCN)NC2=O)NC(=O)[C@H](CCCN)NC(=O)[C@H](CCN)NC(=O)[C@H](Cc2ccc(O)cc2)NC(=O)[C@H](CO)NC1=O [Ex. 207] (H-[NMeC]W[Dab][Tle]YS[dP]P[Nle]SY[Dab][Orn]C[dDab][Dab][Dab][dL]L[Dab][Dab]T; disulfide 1-14; lactam 16-C) | 1 µg/mL | 2 µg/mL | 0.25 µg/mL | 0.125 µg/mL | 0.5 µg/mL | 0.125 µg/mL | 2 µg/mL | 1% | 
5 | CCCC[C@@H]1NC(=O)[C@@H]2CCCN2C(=O)[C@H]2CCCN2C(=O)[C@H](CO)NC(=O)[C@H](C)NC(=O)[C@H](C(C)(C)C)NC(=O)[C@H](CCN)NC(=O)[C@H](Cc2c[nH]c3ccccc23)NC(=O)[C@H](CCN)NC(=O)[C@@H](CCN)NC(=O)[C@H](CC(=O)N(C)[C@@H](CCN)C(=O)N[C@H]2CCNC(=O)[C@H]([C@@H](C)O)NC(=O)[C@H](CCN)NC(=O)[C@H](CCN)NC(=O)[C@H](CC(C)C)NC(=O)[C@@H](CC(C)C)NC(=O)[C@H](CCN)NC2=O)NC(=O)[C@H](CCN)NC(=O)[C@H](Cc2ccc(O)cc2)NC(=O)[C@H](CO)NC1=O [Ex. 73] (I: cyclo(W[Dab][Tle]AS[dP]P[Nle]SY[Dab]D[dDab][Dab]) / II: [NMeDab][Dab][Dab][dL]L[Dab][Dab]T; amide I:12-II:N; lactam II:2-II:C) | 0.5 µg/mL | 0.25 µg/mL | 0.5 µg/mL | 0.25 µg/mL | 0.5 µg/mL | 0.5 µg/mL | 0.25 µg/mL |  | 1%
6 | CCCC[C@@H]1NC(=O)[C@@H]2CCCN2C(=O)[C@H]2CCCN2C(=O)[C@H](CO)NC(=O)[C@H](C)NC(=O)[C@H](C(C)(C)C)NC(=O)[C@@H](NC(=O)[C@H](Cc2c[nH]c3ccccc23)NC(=O)[C@@H](N)CCC(=O)O)CSSC[C@@H](C(=O)N[C@@H](CCN)C(=O)N[C@H](C(=O)N[C@@H](CCN)C(=O)N[C@H]2CCNC(=O)[C@H]([C@@H](C)O)NC(=O)[C@H](CCN)NC(=O)[C@H](CCN)NC(=O)[C@H](CC(C)C)NC(=O)[C@@H](Cc3ccccc3)NC(=O)[C@H](CCN)NC2=O)[C@@H](C)O)NC(=O)[C@H](Cc2ccc(O)cc2)NC(=O)[C@H](CO)NC1=O [Ex. 40] (H-EWC[Tle]AS[dP]P[Nle]SYC[Dab]T[Dab][Dab][Dab][dF]L[Dab][Dab]T; disulfide 3-12; lactam 16-C) | 0.125 µg/mL | 0.25 µg/mL | 0.5 µg/mL | 0.125 µg/mL | 4 µg/mL | 0.25 µg/mL | 0.5 µg/mL | 2% | 
7 | CC(C)C[C@@H]1NC(=O)[C@@H](CC(C)C)NC(=O)[C@H](CCN)NC(=O)[C@@H](NC(=O)[C@@H](CCN)NC(=O)[C@@H]2CSSC(C)(C)[C@H](N)C(=O)N[C@@H](Cc3c[nH]c4ccccc34)C(=O)N[C@@H](CCN)C(=O)N[C@@H](C(C)C)C(=O)N[C@@H](CO)C(=O)N[C@@H](CO)C(=O)N3C[C@@H](O)C[C@@H]3C(=O)N3CCC[C@H]3C(=O)N[C@@H](CC(C)C)C(=O)N[C@@H](CO)C(=O)N[C@@H](Cc3ccc(O)cc3)C(=O)N[C@@H](CCN)C(=O)N[C@@H](CCCN)C(=O)N2)CCNC(=O)[C@H]([C@@H](C)O)NC(=O)[C@H](CCN)NC(=O)[C@H](CCN)NC1=O [Ex. 208] (H-[Pen]W[Dab]VSS[dHyp]PLSY[Dab][Orn]C[dDab][Dab][Dab][dL]L[Dab][Dab]T; disulfide 1-14; lactam 16-C) | 2 µg/mL | 1 µg/mL | 0.5 µg/mL | 0.25 µg/mL | 8 µg/mL | 1 µg/mL | 2 µg/mL | <1% | 
8 | CCCC[C@@H]1NC(=O)[C@@H]2CCCN2C(=O)[C@H]2CCCN2C(=O)[C@H](CO)NC(=O)[C@H](C)NC(=O)[C@H](C(C)(C)C)NC(=O)[C@H](CCN)NC(=O)[C@H](Cc2c[nH]c3ccccc23)NC(=O)[C@H](CCC(=O)N[C@H](C(=O)N[C@@H](CCN)C(=O)N[C@H]2CCNC(=O)[C@H]([C@@H](C)O)NC(=O)[C@H](CCN)NC(=O)[C@H](CCN)NC(=O)[C@H](CC(C)C)NC(=O)[C@@H](Cc3ccccc3)NC(=O)[C@H](CCN)NC2=O)[C@@H](C)O)NC(=O)[C@@H](CCN)NC(=O)[C@H](CCCN)NC(=O)[C@H](CCN)NC(=O)[C@H](Cc2ccc(O)cc2)NC(=O)[C@H](CO)NC1=O [Ex. 75] (I: cyclo([Nle]SY[Dab][Orn][dDab]EW[Dab][Tle]AS[dP]P) / II: T[Dab][Dab][Dab][dF]L[Dab][Dab]T; amide I:7-II:N; lactam II:3-II:C) | 2 µg/mL | 0.5 µg/mL | 1 µg/mL | 0.5 µg/mL | 4 µg/mL | 0.5 µg/mL | 0.25 µg/mL |  | <1%
